Assay results reported in patent US20120172302A1, “COMPOSITION FOR THE TREATMENT OF BENIGN PROSTATE HYPERPLASIA” (priority 2009, published 2012).
Square brackets hold non-standard residues; d marks the D form. Peptide text beside a SMILES is read from it. * marks the point of attachment. dPhe(4-NHCONH2) = NC(=O)Nc1ccc(C[C@@H](N)C(=O)O)cc1; Dihydroorotyl(S) = O=C1C[C@@H](C(=O)*)NC(=O)N1; dPhe(4-Cl) = N[C@H](Cc1ccc(Cl)cc1)C(=O)O; Phe(4-NH2) = Nc1ccc(C[C@H](N)C(=O)O)cc1; d2Nal = N[C@H](Cc1ccc2ccccc2c1)C(=O)O; Lys(iPr) = CC(C)NCCCC[C@H](N)C(=O)O; d3Pal = N[C@H](Cc1cccnc1)C(=O)O

Experiments:
patients with BPH [1] = assay: International Prostate Symptom Score (IPSS) questionnaire, clinical trial in BPH patients; type: in vivo, men; details: for Improvements in mean sum of IPSS scores: 9 and 12 months follow-up
Procedure: For each patient, the following parameters were measured or assessed (using the methods discussed below), at time points of screening (e.g. −7 days) day 0 (“baseline”), day 14, day 28 and day 42:
After the initial 6-week treatment period of the exploratory study had been completed, a 12-month follow-up period looking at long-term efficacy commenced. Interim data of the main efficacy variables (IPSS, IPSS Global QoL, prostate volume, urinary flow, and post-void residual volume—measured as set out below) after 6 months' follow-up are also presented herein Table 1, 2, 3 FIG. 1b), together with some IPSS data at 9 and 12 months (FIG. 1b).
The IPSS was developed in 1991 by the American Urological Association to assess the severity of urinary symptoms related to BPH (Barry, M. J., et al., The American Urological Association symptom index for benign prostatic hyperplasia. The Measurement Committee of the American Urological Association. J Urol, 1992. 148(5): p. 1549-57; discussion 1564). It has been widely used in clinical studies, has undergone extensive validation and its psychometric properties are well documented in both the original version (containing a 1-month recall) as well as the ‘acute’ version used in this study (containing a one-week recall). The WHO has recommended the use of this instrument for the evaluation of BPH and it is considered to be the internationally accepted, standard questionnaire for assessing lower urinary tract symptoms.
The patients were asked to complete the IPSS questionnaire to evaluate their urinary symptoms. The IPSS is a patient-administered questionnaire containing seven items to evaluate symptoms of urinary obstruction (incomplete emptying, frequency, hesitancy, urgency, weak stream, straining, nocturia) over the preceding week. Each urinary symptom question is assigned points from 0 to 5 indicating increasing severity of the particular symptom. The total score can therefore range from 0 to 35 (0-7: mildly symptomatic; 8-19: moderately symptomatic; 20-35: severely symptomatic). A reduction in score over the treatment is indicative of improvement.

[2] = in vivo
patients with BPH [3] = assay: Peak (maximal) urinary flow by flowmetry, clinical trial; type: in vivo, men; details: for Mean maximal urinary flow: baseline
Procedure: 2] Efficacy Endpoints—the measured Peak Urinary Flow, Post-void Residual Volume, and Prostate Volume.
Peak urinary flow was determined by flowmetry using the Uropower device (Wiest, World of Medicine AG, Germany). The device fulfilled the International Continence Society standards for maximum urinary flow. The measurement of urinary flow was done in sitting position.
The Qmax is the maximal urinary flow rate. It is the traditional parameter used in BPH trials and is a good indicator of degree of bladder outlet obstruction (BOO).

[4] = Day 42, all treatment groups combined
[5] = Month 6 follow up, 32 mg group, n=7
[6] = Month 6 follow up, 64 mg group, n=4
[7] = Month 6 follow up, 16+16 mg group, n=6
[8] = Month 6 follow up, 32+32 mg group, n=7
[9] = baseline, all treatment groups combined
[10] = Day 42, all groups, patients violating the maximal uroflow inclusion criterion excluded

Degarelix Cmax and AUC values [2]: higher Cmax and AUC values
Structure (SMILES): CC(=O)N[C@H](Cc1ccc2ccccc2c1)C(=O)N[C@H](Cc1ccc(Cl)cc1)C(=O)N[C@H](Cc1cccnc1)C(=O)N[C@@H](CO)C(=O)N[C@@H](Cc1ccc(NC(=O)[C@@H]2CC(=O)NC(=O)N2)cc1)C(=O)N[C@H](Cc1ccc(NC(N)=O)cc1)C(=O)N[C@@H](CC(C)C)C(=O)N[C@@H](CCCCNC(C)C)C(=O)N1CCC[C@H]1C(=O)N[C@H](C)C(N)=O [Degarelix, D-Alaninamide, N-acetyl-3-(2-naphthalenyl)-D-alanyl-4-chloro-D-phenylalanyl-3-(3-pyridinyl)-D-alanyl-L-seryl-4-[[[(4S)-hexahydro-2,6-dioxo-4-pyrimidinyl]carbonyl]amino]-L-phenylalanyl-4-[(aminocarbonyl)amino]-D-phenylalanyl-L leucyl-N6-(1-methylethyl)-L-lysyl-L-prolyl] (Ac-[d2Nal][dPhe(4-Cl)][d3Pal]S[Phe(4-NH2)](Dihydroorotyl(S))[dPhe(4-NHCONH2)]L[Lys(iPr)]P[dA]-NH2)
IPSS Q1 (incomplete emptying), Q2 (frequency), Q4 (urgency) score, change from baseline (patients with BPH [1]; 32 mg dose, 28 and 42 day timepoints (FIG. 1c)): pronounced effect
Improvements in mean sum of IPSS scores (patients with BPH [1]; 32 mg group (FIG. 1b)): still indicated
Improvements in mean sum of IPSS scores (patients with BPH [1]; 32+32 mg group (FIG. 1b)): still indicated
Mean IPSS score (patients with BPH [1]; Baseline of 6 month follow up patients, 32 mg group, n=7): 22.0 (n = 7)
Mean IPSS score (patients with BPH [1]; Baseline of 6 month follow up patients, 64 mg group, n=4): 20.0 (n = 4)
Mean IPSS score (patients with BPH [1]; Baseline of 6 month follow up patients, 16+16 mg group, n=6): 18.8 (n = 6)
Mean IPSS score (patients with BPH [1]; Baseline of 6 month follow up patients, 32+32 mg group, n=7): 19.3 (n = 7)
Mean IPSS score (patients with BPH [1]; Baseline, 32 mg group (one s.c. injection Day 0), N=12): 22.3 (6.5)
Mean IPSS score (patients with BPH [1]; Baseline, 64 mg group (one s.c. injection Day 0), N=13): 21.8 (6.2)
Mean IPSS score (patients with BPH [1]; Baseline, 16+16 mg group (16 mg s.c. Day 0 and Day 14), N=13): 17.7 (4.5)
Mean IPSS score (patients with BPH [1]; Baseline, 32+32 mg group (32 mg s.c. Day 0 and Day 14), N=12): 18.2 (5.4)
IPSS mean change from baseline (patients with BPH [1]; Day 14, 32 mg group): −7.8 (8.7)
IPSS mean change from baseline (patients with BPH [1]; Day 14, 64 mg group): −8.0 (4.0)
IPSS mean change from baseline (patients with BPH [1]; Day 14, 16+16 mg group): −3.2 (5.4)
IPSS mean change from baseline (patients with BPH [1]; Day 14, 32+32 mg group): −5.5 (5.0)
IPSS mean change from baseline (patients with BPH [1]; Day 42, 32 mg group): −13.2 (6.6)
Mean IPSS score (patients with BPH [1]; Day 42, 32 mg group): 9.1 (6.2)
Number of patients in IPSS category "severe" (patients with BPH [1]; Day 42, 32 mg group): 1 patients
Percentage responders (decrease in IPSS of at least 30% vs baseline) (patients with BPH [1]; Day 42, 32 mg group): 92%
IPSS mean change from baseline (patients with BPH [1]; Day 42, 64 mg group): −10.0 (5.0)
Mean IPSS score (patients with BPH [1]; Day 42, 64 mg group): 11.8 (5.9)
Number of patients in IPSS category "severe" (patients with BPH [1]; Day 42, 64 mg group): 1 patients
Percentage responders (decrease in IPSS of at least 30% vs baseline) (patients with BPH [1]; Day 42, 64 mg group): 85%
IPSS mean change from baseline (patients with BPH [1]; Day 42, 64 mg group, listed as degarelix): −10.0 (SD=5.0)
IPSS mean change from baseline (patients with BPH [1]; Day 42, 16+16 mg group): −6.1 (4.6)
Mean IPSS score (patients with BPH [1]; Day 42, 16+16 mg group): 11.6 (4.5)
Percentage responders (decrease in IPSS of at least 30% vs baseline) (patients with BPH [1]; Day 42, 16+16 mg group): 54%
IPSS mean change from baseline (patients with BPH [1]; Day 42, 16+16 mg group, listed as degarelix): −6.1 (SD=4.6)
IPSS mean change from baseline (patients with BPH [1]; Day 42, 32+32 mg group): −9.6 (4.7)
Mean IPSS score (patients with BPH [1]; Day 42, 32+32 mg group): 8.6 (5.7)
Percentage responders (decrease in IPSS of at least 30% vs baseline) (patients with BPH [1]; Day 42, 32+32 mg group): 83%
IPSS mean change from baseline (patients with BPH [1]; Day 42, 32+32 mg group, listed as degarelix): −9.6 (SD=4.7)
Number of patients in IPSS category "mild" (patients with BPH [1]; [4]): 17 patients
Number of patients in IPSS category "moderate" (patients with BPH [1]; [4]): 31 patients
Number of patients in IPSS category "severe" (patients with BPH [1]; [4]): 2 patients
IPSS mean change from baseline (patients with BPH [1]; [5]): −11.6 (8.3)
Mean IPSS score (patients with BPH [1]; [5]): 10.4 (6.3)
Percentage responders (decrease in IPSS of at least 30% vs baseline) (patients with BPH [1]; [5]): 86%
IPSS mean change from baseline (patients with BPH [1]; [6]): −4.0 (3.6)
Mean IPSS score (patients with BPH [1]; [6]): 16.0 (8.7)
Percentage responders (decrease in IPSS of at least 30% vs baseline) (patients with BPH [1]; [6]): 5%
IPSS mean change from baseline (patients with BPH [1]; [7]): −2.5 (4.3)
Mean IPSS score (patients with BPH [1]; [7]): 16.3 (4.7)
Percentage responders (decrease in IPSS of at least 30% vs baseline) (patients with BPH [1]; [7]): 33%
IPSS mean change from baseline (patients with BPH [1]; [8]): −12.6 (9.6)
Mean IPSS score (patients with BPH [1]; [8]): 6.7 (4.5)
Percentage responders (decrease in IPSS of at least 30% vs baseline) (patients with BPH [1]; [8]): 86%
Number of patients in IPSS category "moderate" (patients with BPH [1]; [9]): 27 patients
Number of patients in IPSS category "severe" (patients with BPH [1]; [9]): 23 patients
Number of patients with maximal urinary flow decreased vs baseline (patients with BPH [3]; Day 42, all groups): 25 patients
Number of patients with maximal urinary flow increased vs baseline (patients with BPH [3]; Day 42, all groups): 24 patients
Number of patients with maximal urinary flow unchanged vs baseline (patients with BPH [3]; Day 42, all groups): 1 patient
Number of patients with decreased uroflow (patients with BPH [3]; [10]): 17
Number of patients with increased uroflow (patients with BPH [3]; [10]): 20
Mean maximal urinary flow (patients with BPH [3]; 32 mg group): 11.7 mL/s
Mean maximal urinary flow (patients with BPH [3]; 64 mg group): 9.1 mL/s
Mean maximal urinary flow (patients with BPH [3]; 16+16 mg group): 10.0 mL/s
Mean maximal urinary flow (patients with BPH [3]; 32+32 mg group): 9.7 mL/s
